This is an account of results in PMC4883067 (Pharmacognosy Magazine, 2016).

The structures appear in SMILES notation.

Data set [1] deals with T1, rat brain MAO-B (Rattus norvegicus, UniProt P19643).
T1 sequence (P19643 1-520): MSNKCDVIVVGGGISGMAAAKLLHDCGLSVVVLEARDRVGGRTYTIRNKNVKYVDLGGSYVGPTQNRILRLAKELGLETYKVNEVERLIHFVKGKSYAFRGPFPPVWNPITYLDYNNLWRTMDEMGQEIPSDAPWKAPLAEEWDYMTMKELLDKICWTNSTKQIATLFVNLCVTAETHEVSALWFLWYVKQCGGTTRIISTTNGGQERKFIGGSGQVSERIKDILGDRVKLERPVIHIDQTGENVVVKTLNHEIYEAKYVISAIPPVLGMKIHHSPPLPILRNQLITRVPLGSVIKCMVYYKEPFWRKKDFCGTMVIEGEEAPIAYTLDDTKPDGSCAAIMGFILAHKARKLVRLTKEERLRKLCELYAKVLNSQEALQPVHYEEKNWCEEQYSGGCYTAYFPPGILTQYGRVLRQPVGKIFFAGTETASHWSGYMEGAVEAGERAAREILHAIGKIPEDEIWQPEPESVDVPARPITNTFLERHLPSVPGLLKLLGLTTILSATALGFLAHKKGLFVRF
The experiment in a line: Kinetics of monoamine oxidase inhibition. The following applies: for Mechanism of inhibition: MAO-B, substrate benzylamine, Lineweaver-Burk. The data set is classed as biochemical.

For data set [2] the following is noted: cited from earlier work.
In data set [3] the target is T1, rat brain MAO-B. The data set can be described thus: Inhibition of MAO-B activity in rat brain crude mitochondrial fraction. In kind it is biochemical.

Usually IC50 stands for the midpoint of a concentration-inhibition curve. For `COc1cc(C=CC(=O)CC(=O)C=Cc2ccc(O)c(OC)c2)ccc1O` [Curcumin, 1,7-bis-(4-hydroxy-3-methoxyphenyl)-hepta-1,6-diene-3,5-dione], the Mechanism of inhibition entry in data set [1] is given as “noncompetitive”. In data set [2], the pKa value is given as 8.54. The same compound gave an IC50 in data set [3] of 500 nM.

Consider `O=c1oc2c(O)c(O)cc3c(=O)oc4c(O)c(O)cc1c4c23` [Ellagic acid], for which, in data set [1], the Mechanism of inhibition result is listed as “Competitive”. For the same compound, the “Vmax (remained constant)” value in data set [1] (ellagic acid, 200–600 μg/ml as printed, benzylamine 5-15 mM) was determined as 8.40 nM/min. For the same compound, in data set [3], half-maximal inhibition (IC50) required 412 nM.
